According to US7960368B2, “Bismethylene-17A carbolactones and related uses” (Everstra, Inc., priority 2008, dated 2011):
Several values for one entry are separate records, joined by “and”; a condition that tells them apart may be missing. Equal values may be shown once. Read-outs that look alike come from different tables or passages of the source.

Columns and labels:
[1] = target: T1, recombinant human progesterone receptor A (hPR-A) (Homo sapiens, UniProt P06401); test: Progestin receptor binding assay, hPR-A; conditions: for IC50: competition with [3H]-progesterone; for hPR-A RBA: relative binding affinity, progesterone = 100
T1 sequence (P06401 1-769 isoform P06401-2): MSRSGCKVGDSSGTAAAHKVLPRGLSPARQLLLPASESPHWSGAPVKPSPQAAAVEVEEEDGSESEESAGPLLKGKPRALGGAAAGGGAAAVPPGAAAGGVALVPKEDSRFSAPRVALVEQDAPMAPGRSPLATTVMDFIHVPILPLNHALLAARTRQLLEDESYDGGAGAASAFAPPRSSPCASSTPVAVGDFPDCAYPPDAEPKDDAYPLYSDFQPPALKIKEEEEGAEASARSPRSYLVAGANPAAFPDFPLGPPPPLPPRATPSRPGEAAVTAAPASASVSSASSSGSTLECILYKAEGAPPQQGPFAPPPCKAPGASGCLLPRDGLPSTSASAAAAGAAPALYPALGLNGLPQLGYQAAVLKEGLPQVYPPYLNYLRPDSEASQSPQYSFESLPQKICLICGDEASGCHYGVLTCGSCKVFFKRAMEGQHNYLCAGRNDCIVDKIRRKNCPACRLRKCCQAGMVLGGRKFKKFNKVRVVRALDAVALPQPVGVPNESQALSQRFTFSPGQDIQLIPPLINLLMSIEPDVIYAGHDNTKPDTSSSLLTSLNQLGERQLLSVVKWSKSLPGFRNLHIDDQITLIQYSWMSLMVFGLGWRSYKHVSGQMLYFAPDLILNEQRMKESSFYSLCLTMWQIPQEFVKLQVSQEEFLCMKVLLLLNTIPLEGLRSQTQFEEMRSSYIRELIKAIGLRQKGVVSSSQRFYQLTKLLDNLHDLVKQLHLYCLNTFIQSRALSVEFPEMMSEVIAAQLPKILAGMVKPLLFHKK
Procedure: (§1) “No compound” controls contain DMSO/binding buffer without compound. The plates are incubated overnight at 4° C., after which solutions in the plates are aspirated and washed six times with PBS, followed by the addition of MicroScint-20 scintillation cocktail (Packard). The plates are sealed using transparent sealing tape and counted for radioactivity by use of the scintillation counter.

[2] = target: T2, recombinant human glucocorticoid receptor (rhGR) (Homo sapiens, UniProt P04150); test: Glucocorticoid receptor binding assay; conditions: hGR IC50, competition with 10 nM [3H]dexamethasone; superscript marks the assay run
T2 sequence (P04150 1-777): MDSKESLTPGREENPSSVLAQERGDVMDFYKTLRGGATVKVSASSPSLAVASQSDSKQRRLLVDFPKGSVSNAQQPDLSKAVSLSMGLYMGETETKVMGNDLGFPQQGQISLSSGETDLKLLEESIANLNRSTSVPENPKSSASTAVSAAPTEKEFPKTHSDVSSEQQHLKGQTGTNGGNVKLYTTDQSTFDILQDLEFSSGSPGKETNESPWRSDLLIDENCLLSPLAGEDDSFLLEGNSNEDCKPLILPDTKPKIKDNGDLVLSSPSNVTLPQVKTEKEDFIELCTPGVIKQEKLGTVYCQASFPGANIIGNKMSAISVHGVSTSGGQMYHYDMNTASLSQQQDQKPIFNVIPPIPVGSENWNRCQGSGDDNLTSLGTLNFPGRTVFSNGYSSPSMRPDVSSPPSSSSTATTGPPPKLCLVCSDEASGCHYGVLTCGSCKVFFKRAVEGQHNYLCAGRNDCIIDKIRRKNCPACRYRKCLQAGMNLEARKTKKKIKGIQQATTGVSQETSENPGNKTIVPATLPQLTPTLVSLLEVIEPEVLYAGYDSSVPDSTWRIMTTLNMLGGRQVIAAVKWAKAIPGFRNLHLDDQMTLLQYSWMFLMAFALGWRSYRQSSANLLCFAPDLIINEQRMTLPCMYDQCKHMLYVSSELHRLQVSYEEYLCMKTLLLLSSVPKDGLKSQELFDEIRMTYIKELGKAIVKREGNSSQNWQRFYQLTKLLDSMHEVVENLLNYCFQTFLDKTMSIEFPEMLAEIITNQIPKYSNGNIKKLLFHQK
Procedure: DCC is added to the wells after incubation to separate bound and unbound radioligand using a repeater pipettor to reduce variability.
Recombinant human GR: 8.6 pmol/mg, 80 pmol/ml. • 2. KEM buffer (10 mM KPO4, pH 7.4, 0.1 mM EDTA, 20 mM Na2MoO4) • 3. KEMD buffer (KEM buffer+5 mM DTT, add DTT the day of assay) • 4. […] 5% Dextran-coated charcoal solution in DEM buffer B. Assay Method—Set Up on Ice. • 1. Dilute 4×10^−3 M CDB-3972 to 4×10^−5 M (40 μM) in KEMD for NSB. The final concentration will be 10 μM. • 2. Thaw the rhGR on ice. […] Dilute rhGR 1:5 (80 pmol/ml) to 16.0 pmol/ml in KEMD. At 25 μl/tube, the final concentration will be 400 fmol/tube in KEMD. • 3. Prepare KEMD containing 10% ethanol. Dilute the compounds to be assayed in KEMD containing 10% ethanol to the working concentrations specified in Table 3. • 4. Prepare a 40 nM solution [^3H]Dex in KEMD containing 10% ethanol. The final concentration will be 10 nM. • 5. Set up the assay in microplates. Use 3 wells for total counts (no receptor), 3 NSB, 6 total binding, and triplicate wells for each concentration of dex or CDB compound. […] Mix gently, and incubate overnight at 2-6° C.
The next morning, prechill the Jouan centrifuge with microplate rotor. Add 50 μl of 5% DCC in KEM to all but total counts using a repeater pipettor. Make sure the DCC is constantly mixed and thoroughly resuspended before adding to the wells. • 7. Mix gently in the cold room for 5 min on plate shaker. • 8. Centrifuge at 3,000 rpm in the Jouan centrifuge at 4° C. for 15 min. • 9. Keeping the plates on ice, pipet 100 μl of the supernatants into 24-well plates, add 1 ml of Microscint PS, and seal the plates. Pre-incubate the plates for 10 min in the counter, and count each well for 2 min in the TopCount.

[3] = target: T3, recombinant rat androgen receptor ligand binding domain (ARLBD) (Rattus norvegicus, UniProt P15207); test: Androgen receptor binding assay; conditions: for IC50: superscript marks the assay run
T3 sequence (P15207 651-882 limits assumed): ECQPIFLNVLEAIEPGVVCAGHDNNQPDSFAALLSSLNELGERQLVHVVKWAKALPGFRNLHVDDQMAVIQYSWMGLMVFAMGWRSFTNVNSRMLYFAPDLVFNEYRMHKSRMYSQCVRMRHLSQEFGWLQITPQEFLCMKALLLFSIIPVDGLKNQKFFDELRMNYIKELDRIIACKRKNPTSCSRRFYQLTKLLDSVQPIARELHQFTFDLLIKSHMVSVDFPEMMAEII
Procedure: The relative affinity of test substances for the androgen receptor was taken as a measure of androgen antagonist activity and of the potential for anti-androgen side effects. […] Different concentrations (e.g., 10 nM, 15 nM or 30 nM) of purified recombinant ARLBD are immobilized to an OptiPlate 96-well microtiter plate (Packard) via incubation at 4° C. in 100 μl/well PBS containing ARLBD. […] “No compound” controls contain DMSO/binding buffer without compound. The plates are incubated overnight at 4° C., after which solutions in the plates are aspirated and washed six times with PBS, followed by the addition of MicroScint-20 scintillation cocktail (Packard). The plates are sealed using transparent sealing tape and counted for radioactivity by use of the scintillation counter. The data thus obtained is used to determine the IC50 values and the relative binding affinity (“RBA”) of the androgen receptor for the test compound.

[4] = target: T4, recombinant human progesterone receptor B (hPR-B) (Homo sapiens, UniProt P06401); test: Progestin receptor binding assay, hPR-B; conditions: for IC50: competition with [3H]-progesterone; for hPR-B RBA: relative binding affinity, progesterone = 100
T4 sequence (P06401 1-933): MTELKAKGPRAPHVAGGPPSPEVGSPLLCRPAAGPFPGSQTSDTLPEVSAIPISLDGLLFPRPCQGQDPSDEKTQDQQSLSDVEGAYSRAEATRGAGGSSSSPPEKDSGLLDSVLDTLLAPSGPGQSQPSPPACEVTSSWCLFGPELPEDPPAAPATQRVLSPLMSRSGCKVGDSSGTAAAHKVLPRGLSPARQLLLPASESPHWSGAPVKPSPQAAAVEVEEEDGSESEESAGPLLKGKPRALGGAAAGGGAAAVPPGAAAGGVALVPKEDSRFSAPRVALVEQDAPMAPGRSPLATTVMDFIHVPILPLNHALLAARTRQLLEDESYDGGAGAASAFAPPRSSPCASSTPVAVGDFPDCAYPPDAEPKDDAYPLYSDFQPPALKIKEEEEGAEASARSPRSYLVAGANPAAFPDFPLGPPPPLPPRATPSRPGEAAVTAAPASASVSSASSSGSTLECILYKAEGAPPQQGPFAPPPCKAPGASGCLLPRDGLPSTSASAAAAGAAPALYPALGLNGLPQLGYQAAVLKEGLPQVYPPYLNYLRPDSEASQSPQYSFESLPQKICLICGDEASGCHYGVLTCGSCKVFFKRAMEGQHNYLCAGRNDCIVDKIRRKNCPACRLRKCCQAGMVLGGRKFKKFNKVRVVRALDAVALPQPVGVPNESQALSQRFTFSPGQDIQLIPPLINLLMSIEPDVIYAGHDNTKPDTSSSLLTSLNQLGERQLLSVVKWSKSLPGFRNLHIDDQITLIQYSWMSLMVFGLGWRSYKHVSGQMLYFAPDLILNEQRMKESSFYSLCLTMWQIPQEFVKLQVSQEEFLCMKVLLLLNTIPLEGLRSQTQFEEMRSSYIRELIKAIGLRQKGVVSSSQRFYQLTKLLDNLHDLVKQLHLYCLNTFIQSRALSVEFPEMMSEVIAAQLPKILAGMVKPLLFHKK
Procedure: as §1

[5] = various pH values; cited from earlier work
[6] = single entity tablet; cited from earlier work
[7] = acidic conditions such as the gastric environment; cited from earlier work
[8] = competition with 5 nM [3H]-R1881, read-out: ARLBD IC50
[9] = ARLBD IC50, competition with 5 nM [3H]-R1881

Row | Structure (SMILES) | IC50 [1] [nM] | hPR-A RBA [1] [%] | IC50 [2] | ARLBD RBA [3] | IC50 [3, 8] | IC50 [4] [nM] | hPR-B RBA [4] [%] | IC50 [3, 9] | ARLBD RBA ([3]; relative binding affinity, R1881 = 100, same assay run) [%] | solubility in water [5] | absolute bioavailability [6] | isomerization under acidic conditions [7]
1 | C[C@]12CC3(CC3)C(=O)C=C1[C@@H]1CC1C1C2CC[C@@]2(C)C1[C@@H]1CC1[C@@]21CCC(=O)O1 (stereo partly drawn) [Compound (IIIe), 2,2-Ethylene-6β,7β:15β,16β-dimethylene-3-oxo-17α-pregn-4-ene-21,17-carbolactone] | > 1000 | <0.6 | > 1000 nM | <0.6% and <0.5% | > 1000 nM | > 1000 | <0.6 |  |  |  |  | 
2 | C[C@]12CCC(=O)C=C1C1(CC1)CC1C2CC[C@@]2(C)C1[C@@H]1CC1[C@@]21CCC(=O)O1 (stereo partly shown) [Compound (IVa)] | 3.5 | 149 | 45.1 nM and 64 nM | 20% and 25% |  | 5.1 | 116 | 28 nM and 17.7 nM |  |  |  | 
3 | C[C@]12C=CC(=O)C=C1C1(CC1)CC1C2CC[C@@]2(C)C1[C@@H]1CC1[C@@]21CCC(=O)O1 (stereo partly drawn) [Compound (IVb), 6,6-ethylene-15β,16β-methylene-3-oxo-17α-pregna-1,4-diene 21,17-carbolactone] | 13.8 | 38 | 87.9 nM and 121 nM | 5% and 4% | 101 nM and 108 nM | 15.4 | 38 |  |  |  |  | 
4 | C[C@@]12C(=CC(=O)C3C[C@@H]31)C1(CC1)CC1C2CC[C@@]2(C)C1[C@@H]1CC1[C@@]21CCC(=O)O1 (stereo partly drawn) [Compound (IVc), 1α,2α:15β,16β-Dimethylene-6,6-ethylene-3-oxo-17α-pregn-4-ene-21,17-carbolactone] | 6.7 | 78 | 117 nM and 300 nM | 7% and 5% |  | 8.3 | 71 | 83.6 nM and 80.9 nM |  |  |  | 
5 | C[C@]1(O)CC[C@H]2[C@@H]3CCC4=CC(=O)CCC4=C3C=C[C@@]21C [Compound R1881, methyltrienolone, reference compound] |  |  |  |  |  |  |  |  | 100 |  |  | 
6 | C[C@]12CCC(=O)C=C1[C@@H]1C[C@@H]1[C@H]1[C@@H]3[C@@H]4C[C@@H]4[C@@]4(CCC(=O)O4)[C@@]3(C)CC[C@@H]12 [Drospirenone, 6β,7β,15β,16β-dimethylene-3-oxo-17α-pregn-4-ene-21,17-carbolactone] |  | 23 |  |  |  |  | 29 |  |  | sparingly soluble | about 76% | undergo isomerization to a form that is inactive
